Experiments:
[1] = system: metastatic hormone-refractory prostate cancer; details: patients with metastatic hormone-refractory prostate cancer; Nelson et al. 2003; cited from earlier work
[2] = system: Mouse MC3T3 pre-osteoblastic cells; experiment: Microarray analysis of gene expression in ET-treated mouse osteoblasts; assay type: cell-based; details: for # Genes Blocked by ABT-627 (of genes down-regulated by ET) / # Genes Blocked by ABT-627 (of genes induced by ET): drug added 1 hour prior to ET
From the text: (§1) Mouse MC3T3 pre-osteoblastic cells (subclone 4) were purchased from ATCC (Manassis, Va.) and propagated in αMEM media without ascorbic acid (Invitrogen, Carlsbad, Calif.) supplemented with 10% FBS (Invitrogen). Human Mesenchymal Stem Cells (MSCs) were purchased from Cambrex (Walkersville, Md.) and propagated according in MSCGM™ media (Cambrex). To initiate differentiation of the MSC into human osteoblasts, the growth media was replaced by osteogenic differentiation medium (OGM, Cambrex).
(§2) Mouse preosteoblastic MC3T3 cells as well as primary human osteoblasts were treated with ET, from Sigma (St. Louis, Mo.), for 2, 4, and 6 hours in the absence or presence of the ETa receptor antagonist ABT-627, from Abbott Laboratories (Abbott Park, Ill.). The drug was added 1 hour prior to the addition of ET.
Total RNA was extracted from the treated cell lines and purified on RNeasy columns (Qiagen, Valencia, Calif.). Labeled cRNA was prepared according to the microarray manufacturer Affymetrix's protocol and hybridized to either mouse 430A 2.0 or human U133A 2.0 arrays (Affymetrix, Santa Clara, Calif.). Gene expression fold changes for each treatment were calculated by combining three biological replicates for each treatment using the Rosetta Resolver's Affymetrix error model software and building a ratio from the resulting values. All genes regulated ≧1.5-fold with a p-value of ≦0.01 were retained for further analysis. Conventional two-dimensional clustering was then performed by using the agglomerative hierarchical clustering algorithm. The Euclidean distance was used as the similarity metric.

[3] = system: PAI-1; experiment: ELISA for PAI-1 secreted by MC3T3 osteoblast cells; assay type: cell-based, mouse; details: MC3T3 cell line
From the text: as §1, §2
(§3) Mouse MC3T3 osteoblast cells were propagated as set out above, and at times indicated were harvested and spun at 250×g for 10 minutes at room temperature. The clarified supernatants were aliquoted and frozen until analyzed. 200 microliters of each sample was tested in quadruplicate by commercially available ELISA assay kits for PAI-1 (Molecular Innovations, Southfield, Mich.), OPG (Biomedica, San Diego, Calif.) and IL-6 (Ray Biotech, Norcross, Ga.). The ELISA tests were performed according to the manufacturer's instructions. […]

[4] = system: osteoblastic metastases; details: mice injected with ET-1-secreting breast cancer cell lines; Yin et al. 2003; cited from earlier work
[5] = system: IL-6; experiment: ELISA for IL-6 secreted by MC3T3 osteoblast cells; assay type: cell-based, mouse; details: MC3T3 cell line
From the text: as §1, §2, §3

[6] = system: OPG; experiment: ELISA for OPG secreted by MC3T3 osteoblast cells; assay type: cell-based, mouse; details: MC3T3 cell line
From the text: as §1, §2, §3

[7] = system: primary human osteoblasts; experiment: Microarray analysis of gene expression in ET-treated primary human osteoblasts; assay type: cell-based; details: ET-1 treatment
From the text: as §1, §2
Total RNA was extracted from the treated cell lines and purified on RNeasy columns (Qiagen, Valencia, Calif.). Labeled cRNA was prepared according to the microarray manufacturer Affymetrix's protocol and hybridized to either mouse 430A 2.0 or human U133A 2.0 arrays (Affymetrix, Santa Clara, Calif.). Gene expression fold changes for each treatment were calculated by combining three biological replicates for each treatment using the Rosetta Resolver's Affymetrix error model software and building a ratio from the resulting values. […]

[8] = endothelin in the presence of ABT-627
[9] = mouse osteoblasts, time point 4 hr
[10] = mouse osteoblasts, time point 6 hr

CCCCN(CCCC)C(=O)CN1C[C@H](c2ccc3c(c2)OCO3)[C@@H](C(=O)O)[C@@H]1c1ccc(OC)cc1 [ABT-627, (2R,3R,4S)-(+)-2-(4-Methoxyphenyl)-4-(1,3-benzodioxol-5-yl)-1-(N,N-di(n-butyl)aminocarbonylmethyl)-pyrrolidine-3-carboxylic acid]
Time to disease progression [1]: extended time to disease progression
Induction by ET-1 of osteoblastic maturation genes (OPG, COX-2, Dmp1, Tgfbi, CTGF, Klf10) ([2]; osteoblastic cells, pre-treatment with ABT-627): blocked
Induction by ET of apoptosis suppression genes (Nur77, Flt1, NFATc1) ([2]; osteoblastic cells, with ABT-627): the induction was blocked
Genes Blocked by ABT-627 as percent of genes induced by ET ([2]; time point 2 hr): (96%)
# Genes Blocked by ABT-627 (of genes down-regulated by ET) ([2]; time point 2 hr): 403
# Genes Blocked by ABT-627 (of genes induced by ET) ([2]; time point 2 hr): 581
Genes Blocked by ABT-627 as percent of genes induced by ET ([2]; time point 4 hr): (83%)
# Genes Blocked by ABT-627 (of genes down-regulated by ET) ([2]; time point 4 hr): 262
# Genes Blocked by ABT-627 (of genes induced by ET) ([2]; time point 4 hr): 390
Genes Blocked by ABT-627 as percent of genes induced by ET ([2]; time point 6 hr): (97%)
# Genes Blocked by ABT-627 (of genes down-regulated by ET) ([2]; time point 6 hr): 93
# Genes Blocked by ABT-627 (of genes induced by ET) ([2]; time point 6 hr): 189
Effect of pre-treatment on ET gene induction events ([2]; two-dimensional hierarchical clustering, all three timepoints): abrogated almost all of these gene induction events
Gene expression changes caused by the antagonist alone ([2]; without ET): very few gene expression changes
Endothelin-induced expression of PAI-1 (ELISA) [3, 8]: substantial suppression
Metastatic growth [4]: suppressed the metastatic growth
Endothelin-induced expression of IL-6 (ELISA) [5, 8]: substantial suppression
Endothelin-induced expression of OPG (ELISA) [6, 8]: substantial suppression

CC[C@H](C)[C@H](NC(=O)[C@H](CC(=O)O)NC(=O)[C@H](CC(C)C)NC(=O)[C@H](Cc1c[nH]cn1)NC(=O)[C@@H]1CSSC[C@H](N)C(=O)N[C@@H](CO)C(=O)N[C@H]2CSSC[C@H](NC(=O)[C@H](CCC(=O)O)NC(=O)[C@H](CCCCN)NC(=O)[C@H](CC(=O)O)NC(=O)[C@H](CCSC)NC(=O)[C@H](CC(C)C)NC(=O)[C@H](CO)NC(=O)[C@H](CO)NC2=O)C(=O)N[C@@H](C(C)C)C(=O)N[C@@H](Cc2ccc(O)cc2)C(=O)N[C@@H](Cc2ccccc2)C(=O)N1)C(=O)N[C@H](C(=O)N[C@@H](Cc1c[nH]c2ccccc12)C(=O)O)[C@@H](C)CC [ET]
Expression of genes coding for secreted proteins (PAI-1, uPA, TGFbeta2, IL-6, IL-8) [7]: strongly upregulated
Expression of genes coding for secreted proteins (PAI-1, uPA, TGFbeta2, IL-6, IL-8) ([2]; mouse osteoblasts, ET-1 treatment): strongly upregulated
# Genes Down-regulated by ET ([2]; mouse osteoblasts, time point 2 hr): 423
# Genes Induced by ET ([2]; mouse osteoblasts, time point 2 hr, regulated >=1.5-fold, p<=0.01): 608
# Genes Down-regulated by ET [2, 9]: 295
# Genes Induced by ET [2, 9]: 472
# Genes Down-regulated by ET [2, 10]: 95
# Genes Induced by ET [2, 10]: 194
Expression of apoptosis suppression genes (Nur77, Flt1, NFATc1) ([2]; osteoblastic cells, ET treatment): induced
Expression of PAI-1 (ELISA) ([3]; treatment with endothelin): strongly induced
Expression of IL-6 (ELISA) ([5]; treatment with endothelin): strongly induced
Expression of OPG (ELISA) ([6]; treatment with endothelin): strongly induced

Reference: patent US20080102451A1, “Companion diagnostic assays for endothelin receptor antagonists” (Abbott Laboratories, priority 2006, published 2008)
